Results on 17 compounds are retold here after the supplement of paper PMC11061612.

Common to all, as to assay: combination Emax (second highest fraction inhibited in the dose matrix, 72 h); higher = more inhibition; extreme values may be limits of the assay
Assay [1] has as its system SU8686 (Pancreatic Carcinoma). In a few lines:
(§1)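 After 24 hours at 37°C and 5% CO2 in 1536-well plates, cells in DMEM/F12 or RPMI plus 10% FBS received two-drug dose matrices for 72 hours. Viability came from CellTiter-Glo 2.0 luminescence and was scaled as inhibition, anchored at 0 by vehicle wells and at 1 by blank wells. Combination Emax is taken as the second-highest inhibition in the matrix, and Bliss excess as the observed combination effect less EA + EB − EA·EB, with EA and EB the single-agent effects.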

Assay [2] relates to KMOE-2 (Acute Myeloid Leukemia). The essentials: as §1
The subject of assay [3] is OE19 (Esophageal Adenocarcinoma). In a few lines:
as §1

The subject of assay [4] is HGC-27 (Gastric Carcinoma). The essentials: as §1

Turning to `CN(CCO)CC[C@H](CSc1ccccc1)Nc1ccc(S(=O)(=O)NC(=O)c2ccc(N3CCC([C@@H](O)c4ccccc4-c4ccc(Cl)cc4)CC3)cc2)cc1S(=O)(=O)C(F)(F)F` [AZD4320] + C1CN(CCC1(C(=O)N[C@@H](CCO)C2=CC=C(C=C2)Cl)N)C3=NC=NC4=C3C=CN4 [Capivasertib] (first compound max 1 µM, 7x7, partner max 3 µM), the “combination Emax” value amounted to 0.0053 in assay [1], 0.828 in assay [2], 0.333 in assay [3] and 0.775 in assay [4].
Turning to `CN(CCO)CC[C@H](CSc1ccccc1)Nc1ccc(S(=O)(=O)NC(=O)c2ccc(N3CCC([C@@H](O)c4ccccc4-c4ccc(Cl)cc4)CC3)cc2)cc1S(=O)(=O)C(F)(F)F` [AZD4320] + C=CCn1c(=O)c2cnc(Nc3ccc(N4CCN(C)CC4)cc3)nc2n1-c1cccc(C(C)(C)O)n1 [AZD1775] (first compound max 1 µM, partner max 1 µM), the “combination Emax” value in assay [1] is 0.238; in assay [2], 1; in assay [3] it was 0.33; in assay [4], 0.543.
The matching figures for `CN(CCO)CC[C@H](CSc1ccccc1)Nc1ccc(S(=O)(=O)NC(=O)c2ccc(N3CCC([C@@H](O)c4ccccc4-c4ccc(Cl)cc4)CC3)cc2)cc1S(=O)(=O)C(F)(F)F` [AZD4320] + CCN(CCO)CCCOc1ccc2c(Nc3cc(CC(=O)Nc4cccc(F)c4)[nH]n3)ncnc2c1 [AZD2811] (first compound max 1 µM, 7x7, partner max 1 µM): 0.155, 0.934, 0.854 and 0.96.
Take `CN(CCO)CC[C@H](CSc1ccccc1)Nc1ccc(S(=O)(=O)NC(=O)c2ccc(N3CCC([C@@H](O)c4ccccc4-c4ccc(Cl)cc4)CC3)cc2)cc1S(=O)(=O)C(F)(F)F` [AZD4320] + C[C@@H]1COCCN1C2=NC(=NC(=C2)C3(CC3)[S@](=N)(=O)C)C4=C5C=CNC5=NC=C4 [AZD6738] (first compound max 1 µM, 7x7, partner max 10 µM): the “combination Emax” value in assay [1] was 0.205; in assay [2] it was 0.938; in assay [3], 0.726; in assay [4], 0.812.
The matching figures for `CN(CCO)CC[C@H](CSc1ccccc1)Nc1ccc(S(=O)(=O)NC(=O)c2ccc(N3CCC([C@@H](O)c4ccccc4-c4ccc(Cl)cc4)CC3)cc2)cc1S(=O)(=O)C(F)(F)F` [AZD4320] + C[C@@H](Nc1cc(F)cc(F)c1)c1cc(C(=O)N(C)C)cc2c(=O)cc(N3CCOCC3)oc12 [AZD8186] (first compound max 1 µM, 7x7, partner max 3 µM): 0.216, 0.887, 0.489 and 0.64.
Take `CN(CCO)CC[C@H](CSc1ccccc1)Nc1ccc(S(=O)(=O)NC(=O)c2ccc(N3CCC([C@@H](O)c4ccccc4-c4ccc(Cl)cc4)CC3)cc2)cc1S(=O)(=O)C(F)(F)F` [AZD4320] + Cc1cc2ncnn2cc1Nc1ncc2c(n1)n(C1CCOCC1)c(=O)n2C [AZD7648] (first compound max 1 µM, 7x7, partner max 10 µM): the “combination Emax” value in assay [1] came to 0.0978; in assay [2], 0.896; in assay [3], 0.415; in assay [4], 0.473.
For `CN(CCO)CC[C@H](CSc1ccccc1)Nc1ccc(S(=O)(=O)NC(=O)c2ccc(N3CCC([C@@H](O)c4ccccc4-c4ccc(Cl)cc4)CC3)cc2)cc1S(=O)(=O)C(F)(F)F` [AZD4320] + Cn1cnc2c(F)c(Nc3ccc(Br)cc3Cl)c(C(=O)NOCCO)cc21 [Selumetinib] (first compound max 1 µM, 7x7, partner max 3 µM) the same measures were 0.228, 1, 0.314 and 0.381.
For `Cc1cc2ncnn2cc1Nc1ncc2c(n1)n(C1CCOCC1)c(=O)n2C` [AZD7648] + C=CCn1c(=O)c2cnc(Nc3ccc(N4CCN(C)CC4)cc3)nc2n1-c1cccc(C(C)(C)O)n1 [AZD1775] (first compound max 10 µM, partner max 1 µM) the same measures were 0.224, 0.924, 0.465 and 0.771.
For `Cc1cc2ncnn2cc1Nc1ncc2c(n1)n(C1CCOCC1)c(=O)n2C` [AZD7648] + CCN(CCO)CCCOc1ccc2c(Nc3cc(CC(=O)Nc4cccc(F)c4)[nH]n3)ncnc2c1 [AZD2811] (first compound max 10 µM, 7x7, partner max 1 µM), the “combination Emax” value in assay [1] turned out to be 0.139; in assay [2], 0.297; in assay [3], 0.774; in assay [4], 0.856.
For `Cc1cc2ncnn2cc1Nc1ncc2c(n1)n(C1CCOCC1)c(=O)n2C` [AZD7648] + CN(C)CCCOc1ccc(-c2ccc3ncc4c(c3c2)n(C2CCOCC2)c(=O)n4C)cn1 [AZD0156] (first compound max 10 µM, 7x7, partner max 1 µM) the same measures were 0.143, 0.213, 0.363 and 0.611.
In the case of `Cc1cc2ncnn2cc1Nc1ncc2c(n1)n(C1CCOCC1)c(=O)n2C` [AZD7648] + C[C@@H]1COCCN1C2=NC(=NC(=C2)C3(CC3)[S@](=N)(=O)C)C4=C5C=CNC5=NC=C4 [AZD6738] (first compound max 10 µM, 7x7, partner max 10 µM), the “combination Emax” value in assay [1] is 0.232; in assay [2], 0.586; in assay [3], 0.813; in assay [4] it was 0.849.
The matching figures for `Cc1cc2ncnn2cc1Nc1ncc2c(n1)n(C1CCOCC1)c(=O)n2C` [AZD7648] + O=C(c1cc(Cc2n[nH]c(=O)c3ccccc23)ccc1F)N1CCN(C(=O)C2CC2)CC1 [Olaparib] (first compound max 10 µM, 7x7, partner max 10 µM): 0.0508, 0.176, 0.289 and 0.629.
The matching figures for `Cc1nc(Nc2ncc(C(=O)Nc3c(C)cccc3Cl)s2)cc(N2CCN(CCO)CC2)n1` [Dasatinib] + CC(=O)Nc1cccc(-n2c(=O)n(C3CC3)c(=O)c3c(Nc4ccc(I)cc4F)n(C)c(=O)c(C)c32)c1 [Trametinib] (first compound max 2 µM, 7x7, partner max 1 µM): 0.388, 1, 0.797 and 0.726.
For `COc1cc2ncnc(Nc3ccc(F)c(Cl)c3)c2cc1OCCCN1CCOCC1` [Gefitinib] + CC(C)n1c(=O)n(C)c2cnc3cc(F)c(-c4ccc(OCCCN5CCCCC5)nc4)cc3c21 [AZD1390] (first compound max 10 µM, 7x7, partner max 0.3 µM) the same measures were 0.082, 0.0507, 0.943 and 0.238.
With `COc1cc2c(cc1OCCCCCOc1cc3c(cc1OC)C(=O)N1C=C(C)C[C@H]1C=N3)N=C[C@@H]1CC(C)=CN1C2=O` [SG3199] + O=C(c1cc(Cc2n[nH]c(=O)c3ccccc23)ccc1F)N1CCN(C(=O)C2CC2)CC1 [Olaparib] (first compound max 0.001 µM, 7x7, partner max 10 µM), the “combination Emax” value in assay [1] worked out at 0.0347; in assay [2], 0.0783; in assay [3], 0.216; in assay [4], 0.464.
For `C[C@@H](c1ccc2nccn2c1)n1nnc2ncc(-c3cnn(C)c3)nc21` [Savolitinib] + CC1(C)CCC(CN2CCN(c3ccc(C(=O)NS(=O)(=O)c4ccc(NCC5CCOCC5)c([N+](=O)[O-])c4)c(Oc4cnc5[nH]ccc5c4)c3)CC2)=C(c2ccc(Cl)cc2)C1 [Venetoclax] (first compound max 1 µM, 7x7, partner max 1 µM) the same measures were 0.0716, 0.0977, 0.166 and 0.147.
The matching figures for `C[C@@H](c1ccc2nccn2c1)n1nnc2ncc(-c3cnn(C)c3)nc21` [Savolitinib] + Cc1c2c(nn1C)CSCc1cc(n(C)n1)CSc1cc(c3ccccc3c1)OCCCc1c(C(=O)O)n(C)c3c-2c(Cl)ccc13 [AZD5991] (first compound max 1 µM, 7x7, partner max 1 µM): 0.137, 0.113, 0.235 and 0.238.
